Source: patent publication US6872729B2, “Pyrimidinylbenzimidazole and triazinylbenzimidazole derivatives and agricultural/horticultural fungicides” (Kumiai Chemical Industry Co., Ltd., priority 1998, dated 2005)

Tested on: Erysiphe graminis
Experiment: Test for preventive effect on wheat powdery mildew
Type: in vivo
Details: wheat (Norin-61-go) seedlings, 500 ppm active ingredient, preventive treatment; diseased area of first leaves 10 days after inoculation with Erysiphe graminis
Procedure: Test for Preventive Effect on Wheat Powdery Mildew 9 Wheat seeds (variety: Norin-61-go) were sown in each 9 cm×9 cm polyvinyl chloride pot, grown in a greenhouse for 8 days, then treated with 10 ml per pot of aqueous solutions of wettable powders prepared in accordance with Formulation Example 2, at a concentration of 500 ppm in terms of the active ingredients and dried in the air. Then, the seedlings were inoculated with Erysiphe graminis spores by sprinkle over the plant and placed in a greenhouse of from 20 to 25° C. 10 days after the inoculation, the total diseases area of the first leaves in each pot was observed and evaluated on the basis of the standards shown in Table 67. [table]

Question: How did the Biological effectiveness turn out when COc1cc(OC)nc(-n2cnc3ccccc32)n1 [Compound I-1] was run?
Answer: A (No diseased area)

Question: Which Biological effectiveness does the source give for COc1cc(OC)nc(-n2c(Cl)nc3ccccc32)n1 [Compound I-2] here?
Answer: A (No diseased area)

Question: COc1cc(OC)nc(-n2c(Br)nc3ccccc32)n1 [Compound I-3] was tested. Which Biological effectiveness did it give?
Answer: A (No diseased area)

Question: For COc1cc(OC)nc(-n2c(C)nc3ccccc32)n1 [Compound I-6], which Biological effectiveness is on record?
Answer: B (Diseased area of less than 25%)

Question: CCc1nc2ccccc2n1-c1nc(OC)cc(OC)n1 [Compound I-7] was tested. Which Biological effectiveness did it give?
Answer: A (No diseased area)

Question: With COc1cc(OC)nc(-n2c(C3CC3)nc3ccccc32)n1 [Compound I-10] as the compound, how does the Biological effectiveness read?
Answer: B (Diseased area of less than 25%)

Question: With CCOCc1nc2ccccc2n1-c1nc(OC)cc(OC)n1 [Compound I-22] as the compound, how does the Biological effectiveness read?
Answer: A (No diseased area)

Question: How did the Biological effectiveness turn out when COc1cc(OC)nc(-n2c(CCl)nc3ccccc32)n1 [Compound I-23] was run?
Answer: A (No diseased area)

Question: With COc1cc(OC)nc(-n2c(C(Cl)(Cl)Cl)nc3ccccc32)n1 [Compound I-25] as the compound, how does the Biological effectiveness read?
Answer: A (No diseased area)

Question: How did the Biological effectiveness turn out when COc1cc(OC)nc(-n2c(C(F)(F)F)nc3ccccc32)n1 [Compound I-26] was run?
Answer: A (No diseased area)

Question: For COc1cc(OC)nc(-n2c(C(F)(F)C(F)(F)F)nc3ccccc32)n1 [Compound I-27], which Biological effectiveness is on record?
Answer: B (Diseased area of less than 25%)

Question: How did the Biological effectiveness turn out when CNc1nc2ccccc2n1-c1nc(OC)cc(OC)n1 [Compound I-29] was run?
Answer: B (Diseased area of less than 25%)

Question: COc1cc(OC)nc(-n2c(N(C)C)nc3ccccc32)n1 [Compound I-30] was tested. Which Biological effectiveness did it give?
Answer: B (Diseased area of less than 25%)

Question: COc1cc(OC)nc(-n2c(-c3ccc(Cl)cc3)nc3ccccc32)n1 [Compound I-35] was tested. Which Biological effectiveness did it give?
Answer: B (Diseased area of less than 25%)

Question: COc1cc(OC)nc(-n2c(C#N)nc3ccccc32)n1 [Compound I-38] was tested. Which Biological effectiveness did it give?
Answer: B (Diseased area of less than 25%)

Question: For COc1nc(OC)nc(-n2cnc3ccccc32)n1 [Compound I-40], which Biological effectiveness is on record?
Answer: B (Diseased area of less than 25%)

Question: For COc1nc(OC)nc(-n2c(Cl)nc3ccccc32)n1 [Compound I-41], which Biological effectiveness is on record?
Answer: A (No diseased area)

Question: For COc1nc(OC)nc(-n2c(C)nc3ccccc32)n1 [Compound I-45], which Biological effectiveness is on record?
Answer: A (No diseased area)

Question: For COc1nc(OC)nc(-n2c(C(F)(F)F)nc3ccccc32)n1 [Compound I-66], which Biological effectiveness is on record?
Answer: A (No diseased area)

Question: For COc1cc(OC)nc(-n2cnc3cc(F)ccc32)n1 [Compound I-82], which Biological effectiveness is on record?
Answer: A (No diseased area)

Question: With COc1cc(OC)nc(-n2cnc3cc(Cl)ccc32)n1 [Compound I-83] as the compound, how does the Biological effectiveness read?
Answer: B (Diseased area of less than 25%)

Question: Which Biological effectiveness does the source give for COc1cc(OC)nc(-n2cnc3cc(Br)ccc32)n1 [Compound I-84] here?
Answer: A (No diseased area)

Question: Which Biological effectiveness does the source give for COc1cc(OC)nc(-n2cnc3cc(C)ccc32)n1 [Compound I-85] here?
Answer: A (No diseased area)

Question: Which Biological effectiveness does the source give for COc1cc(OC)nc(-n2cnc3cc(C(F)(F)F)ccc32)n1 [Compound I-87] here?
Answer: A (No diseased area)

Question: For COc1ccc2c(c1)ncn2-c1nc(OC)cc(OC)n1 [Compound I-88], which Biological effectiveness is on record?
Answer: B (Diseased area of less than 25%)

Question: For COc1cc(OC)nc(-n2cnc3cc(OC(F)(F)F)ccc32)n1 [Compound I-91], which Biological effectiveness is on record?
Answer: B (Diseased area of less than 25%)

Question: Which Biological effectiveness does the source give for COc1cc(OC)nc(-n2cnc3cc(C#N)ccc32)n1 [Compound I-111] here?
Answer: B (Diseased area of less than 25%)

Question: For COc1cc(OC)nc(-n2cnc3ccc(F)cc32)n1 [Compound I-112], which Biological effectiveness is on record?
Answer: B (Diseased area of less than 25%)

Question: COc1cc(OC)nc(-n2cnc3ccc(Cl)cc32)n1 [Compound I-113] was tested. Which Biological effectiveness did it give?
Answer: B (Diseased area of less than 25%)

Question: How did the Biological effectiveness turn out when COc1cc(OC)nc(-n2cnc3ccc(C)cc32)n1 [Compound I-114] was run?
Answer: B (Diseased area of less than 25%)

Question: COc1ccc2ncn(-c3nc(OC)cc(OC)n3)c2c1 [Compound I-116] was tested. Which Biological effectiveness did it give?
Answer: B (Diseased area of less than 25%)

Question: Which Biological effectiveness does the source give for COc1cc(OC)nc(-n2cnc3cc(C)c(C)cc32)n1 [Compound I-122] here?
Answer: B (Diseased area of less than 25%)

Question: For COc1nc(OC)nc(-n2cnc3cc(Cl)ccc32)n1 [Compound I-130], which Biological effectiveness is on record?
Answer: A (No diseased area)

Question: How did the Biological effectiveness turn out when COc1nc(OC)nc(-n2cnc3cc(Br)ccc32)n1 [Compound I-131] was run?
Answer: A (No diseased area)

Question: COc1nc(OC)nc(-n2cnc3cc(I)ccc32)n1 [Compound I-132] was tested. Which Biological effectiveness did it give?
Answer: A (No diseased area)

Question: For COc1nc(OC)nc(-n2cnc3cc(C)ccc32)n1 [Compound I-133], which Biological effectiveness is on record?
Answer: A (No diseased area)

Question: With CCc1ccc2c(c1)ncn2-c1nc(OC)nc(OC)n1 [Compound I-134] as the compound, how does the Biological effectiveness read?
Answer: A (No diseased area)

Question: How did the Biological effectiveness turn out when CCCc1ccc2c(c1)ncn2-c1nc(OC)nc(OC)n1 [Compound I-135] was run?
Answer: A (No diseased area)

Question: COc1nc(OC)nc(-n2cnc3cc(C(C)C)ccc32)n1 [Compound I-136] was tested. Which Biological effectiveness did it give?
Answer: B (Diseased area of less than 25%)

Question: COc1ccc2c(c1)ncn2-c1nc(OC)nc(OC)n1 [Compound I-141] was tested. Which Biological effectiveness did it give?
Answer: A (No diseased area)

Question: How did the Biological effectiveness turn out when COc1nc(OC)nc(-n2cnc3cc(Cl)c(Cl)cc32)n1 [Compound I-175] was run?
Answer: A (No diseased area)

Question: For COc1nc(OC)nc(-n2cnc3cc(C)c(C)cc32)n1 [Compound I-176], which Biological effectiveness is on record?
Answer: A (No diseased area)

Question: How did the Biological effectiveness turn out when COc1cc(OC)nc(-n2c(C)nc3c(C)cccc32)n1 [Compound I-181] was run?
Answer: B (Diseased area of less than 25%)

Question: How did the Biological effectiveness turn out when COc1cc(OC)nc(-n2c(C)nc3cc(F)ccc32)n1 [Compound I-183] was run?
Answer: B (Diseased area of less than 25%)

Question: Which Biological effectiveness does the source give for COc1cc(OC)nc(-n2c(C)nc3cc(Cl)ccc32)n1 [Compound I-184] here?
Answer: A (No diseased area)

Question: How did the Biological effectiveness turn out when COc1cc(OC)nc(-n2c(C)nc3cc(Br)ccc32)n1 [Compound I-185] was run?
Answer: A (No diseased area)

Question: COc1cc(OC)nc(-n2c(C)nc3cc(C(F)(F)F)ccc32)n1 [Compound I-188] was tested. Which Biological effectiveness did it give?
Answer: A (No diseased area)

Question: For COc1ccc2c(c1)nc(C)n2-c1nc(OC)cc(OC)n1 [Compound I-189], which Biological effectiveness is on record?
Answer: A (No diseased area)

Question: COc1cc(OC)nc(-n2c(C)nc3cc(OC(F)(F)F)ccc32)n1 [Compound I-192] was tested. Which Biological effectiveness did it give?
Answer: B (Diseased area of less than 25%)

Question: COc1cc(OC)nc(-n2c(C)nc3cc(C(=O)c4ccccc4)ccc32)n1 [Compound I-195] was tested. Which Biological effectiveness did it give?
Answer: B (Diseased area of less than 25%)

Question: For COc1cc(OC)nc(-n2c(C)nc3cc(C#N)ccc32)n1 [Compound I-199], which Biological effectiveness is on record?
Answer: B (Diseased area of less than 25%)

Question: How did the Biological effectiveness turn out when COc1cc(OC)nc(-n2c(C)nc3ccc(F)cc32)n1 [Compound I-200] was run?
Answer: A (No diseased area)

Question: With COc1cc(OC)nc(-n2c(C)nc3ccc(Cl)cc32)n1 [Compound I-201] as the compound, how does the Biological effectiveness read?
Answer: A (No diseased area)

Question: With COc1cc(OC)nc(-n2c(C)nc3ccc(C)cc32)n1 [Compound I-202] as the compound, how does the Biological effectiveness read?
Answer: B (Diseased area of less than 25%)

Question: With COc1cc(OC)nc(-n2c(C)nc3ccc(C(F)(F)F)cc32)n1 [Compound I-203] as the compound, how does the Biological effectiveness read?
Answer: B (Diseased area of less than 25%)

Question: How did the Biological effectiveness turn out when COc1ccc2nc(C)n(-c3nc(OC)cc(OC)n3)c2c1 [Compound I-204] was run?
Answer: A (No diseased area)

Question: How did the Biological effectiveness turn out when COc1cc(OC)nc(-n2c(C)nc3ccc(C(=O)c4ccccc4)cc32)n1 [Compound I-208] was run?
Answer: B (Diseased area of less than 25%)

Question: Which Biological effectiveness does the source give for COc1cc(OC)nc(-n2c(C)nc3cc(Cl)c(Cl)cc32)n1 [Compound I-209] here?
Answer: B (Diseased area of less than 25%)

Question: For COc1nc(OC)nc(-n2c(C)nc3c(C)cccc32)n1 [Compound I-212], which Biological effectiveness is on record?
Answer: B (Diseased area of less than 25%)

Question: For COc1nc(OC)nc(-n2c(C)nc3cc(F)ccc32)n1 [Compound I-214], which Biological effectiveness is on record?
Answer: A (No diseased area)

Question: With COc1nc(OC)nc(-n2c(C)nc3cc(Br)ccc32)n1 [Compound I-216] as the compound, how does the Biological effectiveness read?
Answer: A (No diseased area)

Question: How did the Biological effectiveness turn out when COc1nc(OC)nc(-n2c(C)nc3cc(I)ccc32)n1 [Compound I-217] was run?
Answer: A (No diseased area)

Question: Which Biological effectiveness does the source give for COc1nc(OC)nc(-n2c(C)nc3cc(C)ccc32)n1 [Compound I-218] here?
Answer: A (No diseased area)

Question: With CCc1ccc2c(c1)nc(C)n2-c1nc(OC)nc(OC)n1 [Compound I-219] as the compound, how does the Biological effectiveness read?
Answer: A (No diseased area)

Question: CCCc1ccc2c(c1)nc(C)n2-c1nc(OC)nc(OC)n1 [Compound I-220] was tested. Which Biological effectiveness did it give?
Answer: B (Diseased area of less than 25%)

Question: Which Biological effectiveness does the source give for COc1nc(OC)nc(-n2c(C)nc3cc(C(C)C)ccc32)n1 [Compound I-221] here?
Answer: B (Diseased area of less than 25%)

Question: With COc1nc(OC)nc(-n2c(C)nc3cc(C(C)(C)C)ccc32)n1 [Compound I-222] as the compound, how does the Biological effectiveness read?
Answer: B (Diseased area of less than 25%)

Question: COc1nc(OC)nc(-n2c(C)nc3cc(C(F)(F)F)ccc32)n1 [Compound I-225] was tested. Which Biological effectiveness did it give?
Answer: A (No diseased area)

Question: COc1ccc2c(c1)nc(C)n2-c1nc(OC)nc(OC)n1 [Compound I-226] was tested. Which Biological effectiveness did it give?
Answer: A (No diseased area)

Question: Which Biological effectiveness does the source give for COc1nc(OC)nc(-n2c(C)nc3cc(OC(F)(F)F)ccc32)n1 [Compound I-229] here?
Answer: A (No diseased area)

Question: For COC(=O)c1ccc2c(c1)nc(C)n2-c1nc(OC)nc(OC)n1 [Compound I-232], which Biological effectiveness is on record?
Answer: B (Diseased area of less than 25%)

Question: COc1nc(OC)nc(-n2c(C)nc3cc(C(C)=O)ccc32)n1 [Compound I-234] was tested. Which Biological effectiveness did it give?
Answer: A (No diseased area)
